Reference: ChEMBL document CHEMBL1208740, “beta-Secretase (BACE-1) inhibitory effect of biflavonoids” (Bioorg Med Chem Lett, 2010)

molecular target: Beta-secretase 1 (Homo sapiens, UniProt P56817); assay: Inhibition of BACE1 after 60 mins by FRET assay
Sequence (P56817 whole entry): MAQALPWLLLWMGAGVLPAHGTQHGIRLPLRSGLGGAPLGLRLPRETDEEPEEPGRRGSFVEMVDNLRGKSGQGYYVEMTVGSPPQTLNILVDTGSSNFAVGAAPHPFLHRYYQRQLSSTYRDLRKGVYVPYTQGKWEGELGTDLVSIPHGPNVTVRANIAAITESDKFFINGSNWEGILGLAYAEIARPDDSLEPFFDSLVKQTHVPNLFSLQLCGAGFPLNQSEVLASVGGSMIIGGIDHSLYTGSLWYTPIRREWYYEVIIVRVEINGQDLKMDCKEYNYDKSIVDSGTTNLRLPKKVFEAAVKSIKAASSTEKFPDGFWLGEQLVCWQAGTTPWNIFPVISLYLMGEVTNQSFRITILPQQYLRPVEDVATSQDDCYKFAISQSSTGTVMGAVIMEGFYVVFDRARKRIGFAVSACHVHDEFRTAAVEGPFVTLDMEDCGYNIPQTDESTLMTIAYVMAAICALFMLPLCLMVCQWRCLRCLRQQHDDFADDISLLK

| IC50 [µM] | Structure (SMILES) |
| --- | --- |
| 0.99 | COc1ccc(-c2cc(=O)c3c(O)cc(O)c(-c4cc(-c5cc(=O)c6c(O)cc(O)cc6o5)ccc4O)c3o2)cc1 [PODOCARPUSFLAVONE A] |
| > 10 | O=c1cc(-c2ccc(Oc3c(O)cc4oc(-c5ccc(O)cc5)cc(=O)c4c3O)cc2)oc2cc(O)cc(O)c12 [HINOKIFLAVONE] |
| > 10 | COc1ccc(-c2cc(=O)c3c(O)cc(OC)c(-c4cc(-c5cc(=O)c6c(O)cc(O)cc6o5)ccc4O)c3o2)cc1 [7'',4'''-dimethylamentoflavone] |
| > 10 | COc1ccc(-c2cc(=O)c3c(O)cc(O)c(-c4cc(-c5cc(=O)c6c(O)cc(OC)cc6o5)ccc4OC)c3o2)cc1 [SCIADOPITISIN] |
| > 10 | COc1ccc(-c2cc(=O)c3c(O)cc(O)cc3o2)cc1-c1c(OC)cc(O)c2c(=O)cc(-c3ccc(O)cc3)oc12 |
| > 10 | COc1ccc(-c2cc(=O)c3c(O)cc(OC)c(-c4cc(-c5cc(=O)c6c(O)cc(O)cc6o5)ccc4OC)c3o2)cc1 [KAYAFLAVONE] |
| 1.54 | O=c1cc(-c2ccc(O)c(-c3c(O)cc(O)c4c(=O)cc(-c5ccc(O)cc5)oc34)c2)oc2cc(O)cc(O)c12 [AMENTOFLAVONE] |
| > 10 | COc1ccc(-c2cc(=O)c3c(O)cc(OC)c(-c4cc(-c5cc(=O)c6c(O)cc(OC)cc6o5)ccc4O)c3o2)cc1 [HEVEAFLAVONE] |
| 4.21 | COc1ccc(-c2cc(=O)c3c(O)cc(O)c(-c4cc(-c5cc(=O)c6c(O)cc(OC)cc6o5)ccc4O)c3o2)cc1 [PODOCARPUSFLAVONE B] |
| 1.4 | COc1cc(O)c2c(=O)cc(-c3ccc(O)c(-c4c(O)cc(O)c5c(=O)cc(-c6ccc(O)cc6)oc45)c3)oc2c1 [SEQUOIAFLAVONE] |
| 4.18 | COc1cc(O)c2c(=O)cc(-c3ccc(OC)c(-c4c(O)cc(O)c5c(=O)cc(-c6ccc(O)cc6)oc45)c3)oc2c1 [GINKGETIN] |
| 3.01 | COc1ccc(-c2cc(=O)c3c(O)cc(O)c(-c4cc(-c5cc(=O)c6c(O)cc(O)cc6o5)ccc4OC)c3o2)cc1 [ISOGINKGETIN] |
| 1.58 | COc1cc(O)c2c(=O)cc(-c3ccc(O)cc3)oc2c1-c1cc(-c2cc(=O)c3c(O)cc(O)cc3o2)ccc1O [SOTETSUFLAVONE] |
| > 10 | COc1ccc(-c2cc(=O)c3c(O)cc(OC)c(-c4cc(-c5cc(=O)c6c(O)cc(OC)cc6o5)ccc4OC)c3o2)cc1 |
| > 10 | O=c1cc(-c2ccc(O)cc2)oc2c(-c3c(O)cc(O)c4c(=O)cc(-c5ccc(O)cc5)oc34)c(O)cc(O)c12 [CUPRESSUFLAVONE] |
| 2.02 | COc1ccc(-c2cc(=O)c3c(O)cc(O)cc3o2)cc1-c1c(O)cc(O)c2c(=O)cc(-c3ccc(O)cc3)oc12 [BILOBETIN] |
| > 10 | O=c1cc(-c2ccc(O)c(-c3c(O)cc4oc(-c5ccc(O)cc5)cc(=O)c4c3O)c2)oc2cc(O)cc(O)c12 [ROBUSTAFLAVONE] |
| 6.25 | COc1cc(O)c2c(=O)cc(-c3ccc(O)c(-c4c(OC)cc(O)c5c(=O)cc(-c6ccc(O)cc6)oc45)c3)oc2c1 |
| > 10 | COc1cc(O)c2c(=O)cc(-c3ccc(OC)c(-c4c(OC)cc(O)c5c(=O)cc(-c6ccc(O)cc6)oc45)c3)oc2c1 |

| Structure (SMILES) | IC50 [µM] |
| --- | --- |
| COc1ccc([C@@H]2CC(=O)c3c(cc(OC)c(C)c3O)O2)cc1-c1c(O)cc(O)c2c(=O)cc(-c3ccc(O)cc3)oc12 | 0.35 |
